The text below walks through data of PubChem BioAssay (NCI).

Assay in all cases: NCI anticancer screen, dose series, 48 h
Experiment [1] relates to SN12C renal.
Experiment [2] relates to BT-549 breast.
In experiment [3] the test system is OVCAR-8 ovarian.
For experiment [4], the system named is HOP-62 NSCLC.
For experiment [5], the system named is NCI-H23 lung.
Experiment [6] concerns LOX IMVI melanoma.
For experiment [7], the system named is DU-145 prostate.
In experiment [8] the test system is PC-3 prostate.
Experiment [9] deals with HCT-116 colon.
The subject of experiment [10] is UACC-62 melanoma.

Molecules are shown by their SMILES.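 These data come from cells grown in 96-well plates and exposed to compound for 48 hours at five concentrations. TGI marks complete inhibition of growth.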 Where a SMILES comes first, the peptide text is derived from it. The star is where a group is joined. Boc = CC(C)(C)OC(=O)*

With `O=c1[nH]c(=O)c2ncn(-c3ccc([N+](=O)[O-])cn3)c2[nH]1`, the TGI in experiment [1], in [2], in [3], in [4], in experiment [5] and in [6] was over 100 µM throughout. Further, the TGI in experiment [7], in [8], in [9] and in experiment [10] was over 100 µM in each case.

Turning to `Cn1c2ccc(F)cc2c2ccc3c(c21)C(=O)C=CC3=O`, the TGI is 31 µM in experiment [1]; over 45 µM in [2]; 26.1 µM in [3]; over 100 µM in experiment [4]; 31.4 µM in [5]; 22.8 µM in experiment [6]. Further, the TGI in experiment [7] was 43.3 µM; in experiment [8], 19.3 µM; in experiment [9], 20.3 µM; in experiment [10], over 61.3 µM.

Regarding `CNC(=O)N(CCC#N)CCN(C(=O)NC)c1ccccc1`, the TGI in experiment [1], in [2], in experiment [3], in experiment [4], in experiment [5] and in [6] was over 100 µM each time. The TGI in experiment [7], in experiment [8], in experiment [9] and in [10] was over 100 µM throughout.

`CCOC(=O)/C=C(/C(=O)OCC)n1cc(C)c(=O)n(Cc2cnnn2COCCOC(C)=O)c1=O`: the TGI was 52.4 µM in [1]; 31.7 µM in experiment [2]; 29.1 µM in experiment [3]; over 100 µM in [4]; 31.5 µM in [5]; 32 µM in [6]. The TGI in experiment [7] was over 52.8 µM; in [8] it was 37.7 µM; in experiment [9] it was 28.4 µM; in experiment [10] it was 30.5 µM.

For the molecule `CC(C)C(Nc1ncnc2nc[nH]c12)C(=O)O` (stereo not given), the TGI in experiment [1], in experiment [2], in experiment [3], in experiment [4], in experiment [5] and in experiment [6] was over 100 µM throughout. The TGI in experiment [7], in experiment [8], in experiment [9] and in experiment [10] was over 100 µM each time.

Turning to `O[C@@H]1C[C@H](Cl)c2c(Cl)sc(Cl)c21`, the TGI in experiment [1], in [2], in experiment [3], in experiment [4], in [5] and in experiment [6] was over 100 µM throughout. For the same molecule, the TGI in experiment [7], in experiment [8], in [9] and in experiment [10] was over 100 µM in each case.

Regarding `O=C(CCBr)N1CCN(C(=O)CCBr)CC1`, the TGI came to 169 µM in [1]; 85.3 µM in [2]; 246 µM in experiment [3]; 155 µM in experiment [4]; 150 µM in experiment [5]; 165 µM in [6]. The TGI came to 496 µM in [7], 500 µM in experiment [8], 151 µM in experiment [9] and 73.3 µM in [10].

With `CCOC(=O)c1[nH]cc(C)c1-c1cccn1-c1ccc(Cl)cc1[N+](=O)[O-]`, the TGI in experiment [1] was 64.7 µM; in experiment [2], 83.7 µM; in [3] it was 78.9 µM; in experiment [4], 44.9 µM; in experiment [5], over 100 µM; in [6], 31.3 µM. Also, the TGI in experiment [7] was over 100 µM; in [8], 64.9 µM; in experiment [9] it was 30.4 µM; in experiment [10], 48.2 µM.

As to `CC(=O)C1=C(C)O[C@@H]2O[C@H](COCc3ccccc3)[C@@H](OCc3ccccc3)[C@H](O)[C@@H]2S1`, the TGI stood at 37.6 µM in experiment [1]; 46.4 µM in [2]; 55.3 µM in experiment [3]; 46.2 µM in experiment [4]; 59.9 µM in [5]; 38.9 µM in experiment [6]. Moreover, the TGI was found to be 58.9 µM in experiment [7], 77.3 µM in experiment [8], 32 µM in [9] and 31.8 µM in experiment [10].

For the molecule `N[C@H]1c2c(Br)sc(Br)c2C(=O)[C@H]1O`, the TGI in experiment [1] came out at 3.63 µM; in [2], 16.5 µM; in experiment [3] it was 43.7 µM; in experiment [4], 36.5 µM; in experiment [5], 17.5 µM; in experiment [6], 10.6 µM. Besides, the TGI in experiment [7] is 39.4 µM; in experiment [8], over 75.1 µM; in experiment [9], 34.9 µM; in experiment [10] it was 23.7 µM.

Turning to `C/C=C1/CN2CCC34c5ccccc5N(C)C23C2CC1C4(C(=O)OC)C(OC(C)=O)O2` (stereo not given), the TGI in experiment [1], in experiment [2], in experiment [3], in experiment [4], in [5] and in [6] was over 100 µM throughout. For the same molecule, the TGI in [7], in experiment [8], in experiment [9] and in [10] was over 100 µM each time.

In the case of `O=C(NC(=S)Nc1ccc([N+](=O)[O-])cc1)c1ccc2c(c1)Sc1ccccc1O2`, the TGI in experiment [1], in experiment [2], in experiment [3], in experiment [4], in experiment [5] and in experiment [6] was over 100 µM in each case. Besides, the TGI in [7], in experiment [8], in [9] and in experiment [10] was over 100 µM throughout.

On to `CC#C[C@]1(O)CCC2[C@@H]3CCC4=CC(=O)CCC4=C3[C@@H](c3ccc(N(C)C)cc3)C[C@@]21C` (stereo not given in full), for which the TGI was 52 µM in experiment [1]; 50.7 µM in [2]; over 100 µM in experiment [3]; 50.3 µM in experiment [4]; 62.1 µM in experiment [5]; 33.7 µM in experiment [6]. The TGI in experiment [7] turned out to be 73.1 µM; in experiment [8], 88.7 µM; in experiment [9], 39.6 µM; in experiment [10], 18.6 µM.

As to `Cc1ncc([N+](=O)[O-])n1CC[N+](C)([O-])CCCCn1ccnc1[N+](=O)[O-]` (stereo not given), the TGI in experiment [1], in experiment [2], in experiment [3], in experiment [4], in experiment [5] and in experiment [6] was over 100 µM in each case. Also, the TGI in experiment [7], in [8], in experiment [9] and in [10] was over 100 µM throughout.

Consider `Oc1c(CN2CCCC2)ccc2cccnc12`, for which the TGI in experiment [1] is over 83.5 µM; in experiment [2], over 100 µM; in experiment [3], 32.4 µM; in experiment [4] it was over 65.8 µM; in experiment [5], 99.6 µM; in experiment [6] it was 60.5 µM. Moreover, the TGI in experiment [7], in experiment [8], in experiment [9] and in experiment [10] was over 100 µM in each case.

Regarding `CCOP(=O)(CCCC(O)CNc1nc(N)nc(Cl)c1N=Nc1ccc(Cl)cc1)OCC` (stereo not given), the TGI in experiment [1] was found to be 18.2 µM; in experiment [2] it was 20.8 µM; in experiment [3], 22.9 µM; in experiment [4], 24.8 µM; in [5] it was 28 µM; in experiment [6] it was 13.8 µM. Besides, the TGI in [7] turned out to be 18.2 µM; in [8] it was 16.7 µM; in experiment [9], 21.7 µM; in experiment [10], 19.1 µM.

With `Cc1cc2nc3c(C#N)c4c(c(Nc5ccc(F)cc5)n3c2cc1C)CCC4`, the TGI in experiment [1], in experiment [2], in experiment [3], in experiment [4], in experiment [5] and in experiment [6] was over 100 µM throughout. Besides, the TGI in [7], in experiment [8], in [9] and in experiment [10] was over 100 µM throughout.

On to `Cc1ccc(/C=C/C(=O)Oc2ccc(/C=C3\CCC/C(=C\c4ccc(OC(=O)/C=C/c5ccc(C)cc5)cc4)C3=O)cc2)cc1`, for which the TGI in experiment [1], in experiment [2], in experiment [3], in experiment [4], in experiment [5] and in experiment [6] was over 100 µM throughout. Besides, the TGI in experiment [7], in [8], in [9] and in experiment [10] was over 100 µM throughout.

As for `Clc1ccc(CCNC2(c3cc4ccccc4s3)CCCCC2)cc1Cl`, the TGI was over 100 µM in experiment [1]; 84.5 µM in [2]; over 100 µM in [3]; 84.3 µM in experiment [4]; over 100 µM in [5]; 35.6 µM in [6]. Further, the TGI in experiment [7] is over 100 µM; in experiment [8] it was over 100 µM; in [9] it was 29.3 µM; in experiment [10], 37.2 µM.

For the molecule `CC(C)(C)NC1=NC(C(F)(F)F)(C(F)(F)F)NC(=O)N1`, the TGI in [1], in experiment [2], in [3], in experiment [4], in [5] and in experiment [6] was over 100 µM throughout. The TGI in [7], in experiment [8], in [9] and in experiment [10] was over 100 µM in each case.

For the molecule `CN(C)CN1CSC(=S)N(CN(C)C)C1`, the TGI in experiment [1], in experiment [2], in experiment [3], in [4], in experiment [5] and in experiment [6] was over 100 µM throughout. The TGI in [7] was over 100 µM; in experiment [8], 42.7 µM; in [9] it was over 100 µM; in experiment [10], over 100 µM.

As to `CC(=O)OCC1OC(n2cnc3nc(Br)[nH]c(=O)c32)C(OC(C)=O)C1OC(C)=O` (stereo not given), the TGI in experiment [1], in experiment [2], in experiment [3], in [4], in experiment [5] and in [6] was over 100 µM in each case. Further, the TGI in experiment [7], in [8], in experiment [9] and in experiment [10] was over 100 µM each time.

As to `COC(=O)C(Cc1ccccc1)NC(=O)C(CS)NC(=O)OC(C)(C)C` (stereo not drawn) (Boc-Cys-Phe-OMe; configuration not given here), the TGI in experiment [1], in experiment [2], in experiment [3], in experiment [4], in experiment [5] and in experiment [6] was over 100 µM throughout. Further, the TGI in experiment [7], in [8], in [9] and in experiment [10] was over 100 µM throughout.

Regarding `CC(C)NC(=O)OCc1c(COC(=O)NC(C)C)c(-c2ccc[n+](COC(=O)Cc3ccccc3)c2)n2c1CCC2`, the TGI in experiment [1] is over 100 µM; in experiment [2], 66.6 µM; in [3] it was over 100 µM; in experiment [4] it was over 100 µM; in experiment [5], 69.6 µM; in [6], over 100 µM. The TGI in experiment [7] is 67.7 µM; in experiment [8], over 100 µM; in experiment [9], over 100 µM; in experiment [10], 44.7 µM.
